Structures are written as SMILES.

This is an account of results in publication PMC3630250 (Clinical cancer research : an official journal of the …, 2013).

One data set deals with Balb/c mice. The conditions noted are these: twice daily for 4 days; cited from earlier work.
The test system of a further data set is mice. The note with it: cited from earlier work.
The test system of data set [1] is IκBα phosphorylation in HEK293 cells. The data set can be described thus: IκBα phosphorylation after TNFα stimulation. Format: cell-based. The note with it: HEK293, 5 and 10 min after TNFα stimulation.

For the compound `COc1c(Cl)cc2c([nH]c3cnccc32)c1NC(=O)c1cccnc1C` [ML-120B], the “granulocytosis and LPS-induced mortality” value in the data set with Balb/c mice is “resulted in granulocytosis and LPS-induced mortality”. Besides, the toxicity in mice entry in the data set with mice is recorded as “showed toxicity in mice”.

For the compound `NC(=O)Nc1sc(-c2ccc(F)cc2)cc1C(N)=O` [TPCA1], the “inhibition of IκBα phosphorylation and degradation at early time points” value in data set [1] is “complete inhibition”. Besides, the toxicity in mice entry with mice was “showed toxicity in mice”.
